Assay results reported in article PMC4503722, “Novel Phenotypic Outcomes Identified for a Public Collection of Approved Drugs from a Publicly Accessible Panel of Assays” (PLoS ONE, 2015).
Like-named read-outs stand apart in the source and are kept apart here.

Assays:
[1] = test system: endothelial tube formation in co-cultures of ECFCs and ADSCs treated with VEGF; test: cells; type: cell-based, human
HeLa cells = test: cells; type: cell-based;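 on Hela CellCycMod PI 4N summarized IC50: value tracks stimulation of 4N DNA content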
DLD-1 = test: cells; type: cell-based
SW480 = test: cells; type: cell-based
HCT116 = test: cells; type: cell-based; settings: basal
[2] = test system: HCT116 cells treated with a GSK3β inhibitor; test: cells; type: cell-based; settings: for IC50/EC50, GSK3b inh pretreated_Viability ATP HCT116 (assay number 26): GSK3b inh pretreated
Colo320 = test: cells; type: cell-based
HT-29 = test: cells; type: cell-based
RKO = test: cells; type: cell-based
SNU-C1 = test: cells; type: cell-based
[3] = test system: ECFC/ADSC co-culture cell nuclei number
[4] = assay number 26, GSK3b inhibitor pretreated
[5] = assay number 23, concentration response
[6] = assay number 24, concentration response
[7] = assay number 25, concentration response
[8] = assay number 26, GSK3b inhibitor pretreated, concentration response
[9] = assay number 27, concentration response
[10] = assay number 28, concentration response
[11] = assay number 29, concentration response
[12] = assay number 30, concentration response

SMILES	IC50/EC50, VEGF_ADSC\ECFC Angio CD31 TubeArea (assay number 2) [1]	IC50/EC50, Basal_Viability ATP DLD-1 (assay number 23) (DLD-1; basal)	IC50/EC50, Basal_Viability ATP SW480 (assay number 24) (SW480; basal)	IC50/EC50, Basal_Viability ATP HCT116 (assay number 25) (HCT116)	IC50/EC50, GSK3b inh pretreated_Viability ATP HCT116 (assay number 26) [2]	IC50/EC50, Basal_Viability ATP Colo 320 (assay number 27) (Colo320; basal)	IC50/EC50, Basal_Viability ATP HT-29 (assay number 28) (HT-29; basal)	IC50/EC50, Basal_Viability ATP RKO (assay number 29) (RKO; basal)	IC50/EC50, Basal_Viability ATP SNU-C1 (assay number 30) (SNU-C1; basal)	IC50/EC50, VEGF_ADSC\ECFC Angio Hoechst NucArea (assay number 3) [3]	VEGF_ADSC\ECFC Angio CD31 TubeArea IC50/EC50 [1]	VEGF_ADSC\ECFC Angio Hoechst NucArea IC50/EC50 [3]	Basal_Viability ATP DLD-1 IC50/EC50 (DLD-1; [5])	Basal_Viability ATP SW480 IC50/EC50 (SW480; [6])	Basal_Viability ATP HCT116 IC50/EC50 (HCT116; [7])	GSK3b inh pretreated_Viability ATP HCT116 IC50/EC50 [2, 8]	Basal_Viability ATP Colo 320 IC50/EC50 (Colo320; [9])	Basal_Viability ATP HT-29 IC50/EC50 (HT-29; [10])	Basal_Viability ATP RKO IC50/EC50 (RKO; [11])	Basal_Viability ATP SNU-C1 IC50/EC50 (SNU-C1; [12])	further results
Cc1cc(N)c2ccccc2[n+]1CCCCCCCCCC[n+]1c(C)cc(N)c2ccccc21 [NCGC00015339-07]	> 10 µM	5.7172 µM	3.8338 µM	> 20 µM	> 20 µM	15.8701 µM	> 20 µM	2.4541 µM	1.2926 µM	> 10 µM	–	–	–	–	–	–	–	–	–	–	IC50/EC50, Hela CellCycMod PI 2N (assay number 14) (HeLa cells; 2N): > 10 µM; IC50/EC50, Hela CellCycMod PI 4N (assay number 16) (HeLa cells; 4N): > 10 µM; IC50/EC50, Hela CellCycMod PI Cell Number (assay number 18) (HeLa cells): > 10 µM; IC50/EC50, Hela CellCycMod PI MI (assay number 17) (HeLa cells; MI): > 10 µM; IC50/EC50, Hela CellCycMod PI S Phase (assay number 15) (HeLa cells): > 10 µM
O=C1C2CC=CCC2C(=O)N1SC(Cl)(Cl)Cl (stereo not shown) [NCGC00091034-10]	–	–	–	–	–	–	–	–	–	–	–	–	–	–	–	–	–	–	–	–	IC50 ([1]; read-out: VEGF_ADSC\ECFC Angio CD31 TubeArea summarized IC50): > 10 µM; IC50 (HeLa cells; assay number 14, 2N, read-out: Hela CellCycMod PI 2N summarized IC50): > 10 µM; IC50 (HeLa cells; assay number 15, S phase, read-out: Hela CellCycMod PI S Phase summarized IC50): > 10 µM; IC50 (HeLa cells; assay number 16, 4N, read-out: Hela CellCycMod PI 4N summarized IC50): > 10 µM; IC50 (HeLa cells; assay number 17, MI, read-out: Hela CellCycMod PI MI summarized IC50): 6.14 µM; IC50 (HeLa cells; assay number 18, cell number, read-out: Hela CellCycMod PI Cell Number summarized IC50): 1.79 µM; IC50 (DLD-1; assay number 23, basal, read-out: Basal_Viability ATP DLD-1 summarized IC50): 0.348 µM; IC50 (SW480; assay number 24, basal, read-out: Basal_Viability ATP SW480 summarized IC50): 0.0788 µM; IC50 (HCT116; assay number 25, read-out: Basal_Viability ATP HCT116 summarized IC50): 1.76 µM; IC50 ([2]; assay number 26, GSK3b inhibitor pretreated, read-out: GSK3b inh pretreated_Viability ATP HCT116 summarized IC50): 2.21 µM; IC50 (Colo320; assay number 27, basal, read-out: Basal_Viability ATP Colo 320 summarized IC50): 0.306 µM; IC50 (HT-29; assay number 28, basal, read-out: Basal_Viability ATP HT-29 summarized IC50): 0.5 µM; IC50 (RKO; assay number 29, basal, read-out: Basal_Viability ATP RKO summarized IC50): 0.402 µM; IC50 (SNU-C1; assay number 30, basal, read-out: Basal_Viability ATP SNU-C1 summarized IC50): 0.903 µM; IC50 ([3]; read-out: VEGF_ADSC\ECFC Angio Hoechst NucArea summarized IC50): > 10 µM
OC[C@H]1O[C@@H](n2cnc3c(=S)nc[nH]c32)[C@H](O)[C@@H]1O [NCGC00096122-05]	1.4206 µM	0.06302 µM	0.02867 µM	0.02858 µM	0.5044 µM	1.064 µM	0.1181 µM	0.01437 µM	2.185 µM	> 10 µM	–	–	–	–	–	–	–	–	–	–	IC50/EC50, Hela CellCycMod PI 2N (assay number 14) (HeLa cells; 2N): > 10 µM; IC50/EC50, Hela CellCycMod PI 4N (assay number 16) (HeLa cells; 4N): > 10 µM; IC50/EC50, Hela CellCycMod PI Cell Number (assay number 18) (HeLa cells): > 10 µM; IC50/EC50, Hela CellCycMod PI MI (assay number 17) (HeLa cells; MI): > 10 µM; IC50/EC50, Hela CellCycMod PI S Phase (assay number 15) (HeLa cells): > 10 µM
NC(=O)n1c(O)c(C(=O)c2cccs2)c2cc(Cl)ccc21 [NCGC00263542-01]	> 10 µM	6.9467 µM	1.02 µM	2.309 µM	3.787 µM	1.643 µM	5.6005 µM	4.703 µM	0.5375 µM	> 10 µM	–	–	–	–	–	–	–	–	–	–	–
C/C(=N\O)[C@@H](C)NCC(C)(C)CN[C@H](C)/C(C)=N/O [NCGC00319018-01]	–	–	–	–	–	–	–	–	–	–	> 10 µM	> 10 µM	–	–	–	–	–	–	–	–	Basal_Viability ATP DLD-1 IC50/EC50 (DLD-1; assay number 23, basal): > 20 µM; Basal_Viability ATP SW480 IC50/EC50 (SW480; assay number 24, basal): > 20 µM; Basal_Viability ATP HCT116 IC50/EC50 (HCT116; assay number 25): > 20 µM; GSK3b inh pretreated_Viability ATP HCT116 IC50/EC50 [2, 4]: > 20 µM; Basal_Viability ATP Colo 320 IC50/EC50 (Colo320; assay number 27, basal): > 20 µM; Basal_Viability ATP HT-29 IC50/EC50 (HT-29; assay number 28, basal): > 20 µM; Basal_Viability ATP RKO IC50/EC50 (RKO; assay number 29, basal): > 20 µM; Basal_Viability ATP SNU-C1 IC50/EC50 (SNU-C1; assay number 30, basal): > 20 µM
CCCCC[C@@H](O)CC[C@H]1[C@@H]2Cc3cccc(OCC(=O)O)c3C[C@@H]2C[C@@H]1O [NCGC00319020-01]	–	–	–	–	–	–	–	–	–	–	> 10 µM	> 10 µM	–	–	–	–	–	–	–	–	Basal_Viability ATP DLD-1 IC50/EC50 (DLD-1; assay number 23, basal): > 20 µM; Basal_Viability ATP SW480 IC50/EC50 (SW480; assay number 24, basal): > 20 µM; Basal_Viability ATP HCT116 IC50/EC50 (HCT116; assay number 25): > 20 µM; GSK3b inh pretreated_Viability ATP HCT116 IC50/EC50 [2, 4]: > 20 µM; Basal_Viability ATP Colo 320 IC50/EC50 (Colo320; assay number 27, basal): > 20 µM; Basal_Viability ATP HT-29 IC50/EC50 (HT-29; assay number 28, basal): > 20 µM; Basal_Viability ATP RKO IC50/EC50 (RKO; assay number 29, basal): > 20 µM; Basal_Viability ATP SNU-C1 IC50/EC50 (SNU-C1; assay number 30, basal): > 20 µM
CC=CC1C(C(=O)OCc2c(F)c(F)c(COC)c(F)c2F)C1(C)C (stereo not shown) [NCGC00319021-01]	–	–	–	–	–	–	–	–	–	–	> 10 µM	> 10 µM	> 20 µM	> 20 µM	> 20 µM	> 20 µM	> 20 µM	> 20 µM	> 20 µM	> 20 µM	–
COC(=O)CCCCC(CCSS/C(CCO)=C(\C)N(C=O)Cc1cnc(C)nc1N)SC(C)=O (stereo not shown) [NCGC00319022-01]	–	–	–	–	–	–	–	–	–	–	> 10 µM	> 10 µM	> 20 µM	> 20 µM	> 20 µM	> 20 µM	> 20 µM	> 20 µM	> 20 µM	> 20 µM	–
C=CC(C)(O)CCC=C(C)CCC=C(C)C (stereo not shown) [NCGC00344526-01]	–	–	–	–	–	–	–	–	–	–	> 10 µM	> 10 µM	> 20 µM	> 20 µM	> 20 µM	> 20 µM	10.2751 µM	> 20 µM	> 20 µM	> 20 µM	–
CC1(C)[C@H](C=C(Cl)Cl)[C@@H]1C(=O)OCc1c(F)c(F)cc(F)c1F [NCGC00344542-01]	–	–	–	–	–	–	–	–	–	–	> 10 µM	> 10 µM	> 20 µM	> 20 µM	> 20 µM	> 20 µM	> 20 µM	> 20 µM	> 20 µM	> 20 µM	–
